For this experiment, the target named is T1, Recombinant human GR (Homo sapiens, UniProt P04150).
T1 construct: purchased Invitrogen P2816
T1 sequence (P04150 1-777): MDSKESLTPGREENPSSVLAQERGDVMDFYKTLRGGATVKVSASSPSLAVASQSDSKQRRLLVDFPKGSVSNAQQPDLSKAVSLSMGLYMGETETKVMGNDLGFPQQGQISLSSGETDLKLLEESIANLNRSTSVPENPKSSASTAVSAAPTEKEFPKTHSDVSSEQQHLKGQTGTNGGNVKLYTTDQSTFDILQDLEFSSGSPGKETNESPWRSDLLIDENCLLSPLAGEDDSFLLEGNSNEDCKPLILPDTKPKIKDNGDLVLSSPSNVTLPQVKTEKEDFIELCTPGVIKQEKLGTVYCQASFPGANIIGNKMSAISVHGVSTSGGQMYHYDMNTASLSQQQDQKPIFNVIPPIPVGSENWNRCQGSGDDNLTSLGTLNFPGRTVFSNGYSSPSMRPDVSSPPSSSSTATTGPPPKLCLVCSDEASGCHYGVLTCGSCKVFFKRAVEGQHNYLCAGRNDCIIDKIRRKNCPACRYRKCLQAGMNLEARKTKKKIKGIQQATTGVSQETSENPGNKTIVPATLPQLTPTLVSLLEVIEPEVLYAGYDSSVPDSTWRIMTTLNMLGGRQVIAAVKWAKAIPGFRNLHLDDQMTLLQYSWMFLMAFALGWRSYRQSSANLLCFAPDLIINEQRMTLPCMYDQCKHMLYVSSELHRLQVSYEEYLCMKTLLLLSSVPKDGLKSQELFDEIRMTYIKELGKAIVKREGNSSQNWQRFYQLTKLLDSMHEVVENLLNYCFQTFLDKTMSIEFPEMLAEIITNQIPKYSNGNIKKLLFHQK
Nature of the experiment: GR competitor assay by fluorescence polarization (binding activity to glucocorticoid receptor). To be noted: 20 μM test compound solution, 25 μL per well plus 12.5 μL each of 4×GS1 and 4×GR solution; Fluormone GS1 ligand; positive control 2 mM dexamethasone; read-out: GR Binding ratio (%). As for the experimental part:
1. Evaluation Test for Binding Activity to Glucocorticoid Receptor (Hereinafter Referred to as “GR”)
In order to evaluate a binding activity to GR, a receptor competitor assay was carried out by a fluorescence polarization method. In the assay, a GR competitor assay kit (manufactured by Invitrogen, cat No. P2816) was used, and a procedure was carried out according to the protocol attached to the kit. Hereinafter, the specific method will be described.
GR screening buffer: A buffer containing 10 mM potassium phosphate (pH 7.4), 20 mM sodium molybdate (Na2MoO4), 0.1 mM ethylene diamine tetraacetic acid (EDTA), 5 mM dithiothreitol (DTT), 0.1 mM stabilizing peptide and 2% dimethylsulfoxide was prepared.
4×GS1 solution: Fluormone™ GS1, which is a fluorescent glucocorticoid ligand, was diluted with GR screening buffer, whereby a 4 nM solution was prepared.
4×GR solution: Recombinant human GR was diluted with GR screening buffer, whereby a 16 nM solution was prepared.
After a test compound was dissolved in dimethylsulfoxide, the resulting solution was diluted with GR screening buffer, whereby a 20 μM test compound solution was prepared.
1) The test compound solution was added in an amount of 25 μL into each well of a 96-well plate, and then, 4×GS1 solution and 4×GR solution were added in an amount of 12.5 μL into each well, respectively.
2) The plate was incubated in a dark place at room temperature for 2 to 4 hours.
3) By using a multimode plate reader, Analyst™ HT (manufactured by LJL Biosystems), fluorescence polarization of each well was measured. As the blank, a well containing GR screening buffer in place of the test compound and 4×GS1 solution was used.
4) The same procedure as that in the above 1) to 3) was carried out except that GR screening buffer was used in place of the test compound solution, and the obtained result was taken as the negative control.
5) The same procedure as that in the above 1) to 3) was carried out except that 2 mM dexamethasone was used in place of the test compound solution, and the obtained result was taken as the positive control.
A GR binding ratio (%) was calculated from the following equation.
GR binding ratio (%)=100×[1-(fluorescence polarization of test compound solution-fluorescence polarization of positive control solution)/(fluorescence polarization of negative control solution—fluorescence polarization of positive control solution)]

`COc1ccc(F)cc1-c1ccc2c(c1CNc1ccccc1)N(C)C(=O)C(C)(C)N2` [Compound 5-14]: the inhibition at 10 µM was 100%.

With `COc1ccc(C(F)(F)F)cc1-c1ccc2c3c1CN(c1ccccc1OC)CN3C(=O)C(C)(C)N2` [Compound 6-38], the inhibition at 10 µM was 100%.

Consider `COc1ccc(CO)cc1-c1ccc2c(c1COc1cc(F)ccc1C)N(C)C(=O)C(C)(C)N2` [Compound 9-1, 8-(5-Fluoro-2-methylphenoxymethyl)-7-(5-hydroxymethyl-2-methoxyphenyl)-1,3,3-trimethyl-3,4-dihydro-1H-quinoxalin-2-one], for which the inhibition at 10 µM was 100%.

Consider `COc1ccc(C(=O)OCc2c(-c3ccc(OC(=O)c4ccccc4C)cc3OC)ccc3c2NC(=O)C(C)(C)N3)cc1` [Compound 1-4, 7-[2-Methoxy-4-(2-methylbenzoyloxy)phenyl]-8-(4-methoxybenzoyloxymethyl)-3,3-dimethyl-3,4-dihydro-1H-quinoxalin-2-one], for which the inhibition at 10 µM was determined as 91%.

For the compound `COc1cc(OC(=O)c2cccnc2C)ccc1-c1ccc2c(c1COc1cc(F)ccc1C)N(C)C(=O)C(C)(C)N2` [Compound 15-2], the inhibition at 10 µM worked out at 100%.

As to `COc1cc(F)ccc1-c1ccc2c(c1COc1cc(F)ccc1C)N(C)C(=O)C(C)(C)N2` [Compound 6-12], the inhibition at 10 µM amounted to 100%.

Take `COc1ccc([N+](=O)[O-])cc1OCc1c(-c2ccc(OC(=O)c3ccccc3C)cc2OC)ccc2c1NC(=O)C(C)(C)N2` [Compound 22, 7-[2-Methoxy-4-(2-methylbenzoyloxy)phenyl]-8-(2-methoxy-5-nitrophenoxymethyl)-3,3-dimethyl-3,4-dihydro-1H-quinoxalin-2-one]: the inhibition at 10 µM turned out to be 100%.

On to `COc1cc(OC(=O)c2ccccc2F)ccc1-c1ccc2c(c1COC(=O)c1ccc(C)s1)N(C)C(=O)C(C)(C)N2` [Compound 14-44], for which the inhibition at 10 µM turned out to be 100%.

With `COc1ccc(F)cc1-c1ccc2c(c1COc1ccccc1)N(C)C(=O)C(C)(C)N2` [Compound 5-9], the inhibition at 10 µM amounted to 100%.

Consider `COC(=O)Oc1ccc(-c2ccc3c(c2COc2cc(F)ccc2C)N(C)C(=O)C(C)(C)N3)c(OC)c1` [Compound 14-35], for which the inhibition at 10 µM was determined as 93%.

`C=CC(=O)Oc1ccc(-c2ccc3c(c2COc2cc(F)ccc2C)N(C)C(=O)C(C)(C)N3)c(OC)c1` [Compound 14-33]: the inhibition at 10 µM was found to be 100%.

On to `COc1ccc(F)cc1-c1ccc2c(c1COC(=O)c1ccccc1)N(C)C(=O)C(C)(C)N2` [Compound 5-1, 8-Benzoyloxymethyl7-(5-fluoro-2-methoxyphenyl)-1,3,3-trimethyl-3,4-dihydro-1H-quinoxalin-2-one], for which the inhibition at 10 µM is 100%.

With `COc1ccccc1NCc1c(-c2ccc(OC(=O)c3cscn3)cc2OC)ccc2c1N(C)C(=O)C(C)(C)N2` [Compound 21-13, 8-(2-Methoxyphenylaminomethyl)-7-[2-methoxy-4-(thiazol-4-ylcarbonyloxy)phenyl]-1,3,3-trimethyl-3,4-dihydro-1H-quinoxalin-2-one], the inhibition at 10 µM came out at 94%.

As to `COc1ccccc1NCc1c(-c2ccc(OC(=O)c3cccnc3C)cc2OC)ccc2c1N(C)C(=O)C(C)(C)N2` [Compound 21-12, 7-[2-Methoxy-4-(2-methylpyridin-3-ylcarbonyloxy)phenyl]-8-(2-methoxyphenylaminomethyl)-1,3,3-trimethyl-3,4-dihydro-1H-quinoxalin-2-one], the inhibition at 10 µM worked out at 100%.

Take `COc1cc(OC(=O)c2cccc(C(C)=O)c2)ccc1-c1ccc2c(c1COc1cc(F)ccc1C)N(C)C(=O)C(C)(C)N2` [Compound 15-13]: the inhibition at 10 µM was 100%.

As for `COc1cc(OC(=O)N2CCOCC2)ccc1-c1ccc2c(c1COc1cc(F)ccc1C)N(C)C(=O)C(C)(C)N2` [Compound 18-1, 8-(5-Fluoro-2-methylphenoxymethyl)-7-[2-methoxy-4-(morpholin-4-ylcarbonyloxy)phenyl]-1,3,3-trimethyl-3,4-dihydro-1H-quinoxalin-2-one], the inhibition at 10 µM was 100%.

For the compound `COc1ccc(F)cc1-c1ccc2c(c1COC(=O)c1ccc(C)cc1)NC(=O)C(C)(C)N2` [Compound 2-2], the inhibition at 10 µM came to 99%.

For `COc1cc(F)ccc1-c1ccc2c(c1COc1cc([N+](=O)[O-])ccc1C)N(C)C(=O)C(C)(C)N2` [Compound 3-7], the inhibition at 10 µM was determined as 100%.

As to `C=CCc1ccccc1OCc1c(-c2ccc(F)cc2OC)ccc2c1N(C)C(=O)C(C)(C)N2` [Compound 3-17], the inhibition at 10 µM worked out at 100%.

On to `COc1cc(OC(=O)Oc2ccccc2)ccc1-c1ccc2c(c1COc1cc(F)ccc1C)N(C)C(=O)C(C)(C)N2` [Compound 14-36], for which the inhibition at 10 µM amounted to 88%.

`COc1cc(F)ccc1-c1ccc2c(c1COC(=O)c1ccc(Br)s1)N(C)C(=O)C(C)(C)N2` [Compound 2-16]: the inhibition at 10 µM turned out to be 100%.

Turning to `COc1ccc([N+](=O)[O-])cc1OCc1c(-c2ccc(OC(=O)c3ccccc3C)cc2OC)ccc2c1N(C)C(=O)C(C)(C)N2` [Compound 5-22], the inhibition at 10 µM was 99%.

Take `COc1cc(OC(=O)Nc2cccnc2)ccc1-c1ccc2c(c1COc1cc(F)ccc1C)N(C)C(=O)C(C)(C)N2` [Compound 17-5, 8-(5-Fluoro-2-methylphenoxymethyl)-7-[2-methoxy-4-(pyridin-3-ylaminocarbonyloxy)phenyl]-1,3,3-trimethyl-3,4-dihydro-1H-quinoxalin-2-one]: the inhibition at 10 µM was found to be 91%.

Consider `COc1ccccc1-c1ccc2c(c1COc1cc(F)ccc1C)N(C)C(=O)C(C)(C)N2` [Compound 6-8], for which the inhibition at 10 µM came out at 98%.

Take `CCCC(=O)Oc1ccc(-c2ccc3c(c2CNc2ccccc2OC)N(C)C(=O)C(C)(C)N3)c(OC)c1` [Compound 21-5, 7-(4-Butyryloxy-2-methoxyphenyl)-8-(2-methoxyphenylaminomethyl)-1,3,3-trimethyl-3,4-dihydro-1H-quinoxalin-2-one]: the inhibition at 10 µM came out at 98%.

In the case of `COc1ccccc1NCc1c(-c2ccc(F)cc2OC)ccc2c1N(C)C(=O)C(C)(C)N2` [Compound 4-11], the inhibition at 10 µM turned out to be 100%.

In the case of `COc1cc(O)ccc1-c1ccc2c(c1COc1cc(F)ccc1C)N(C)C(=O)C(C)(C)N2` [Compound 11, 8-(5-fluoro-2-methylphenoxymethyl)-7-(4-hydroxy-2-methoxyphenyl)-1,3,3-trimethyl-3,4-dihydro-1H-quinoxalin-2-one], the inhibition at 10 µM stood at 100%.

With `COc1ccc(OC(=O)c2ccccc2)cc1-c1ccc2c(c1COc1cc(F)ccc1C)N(C)C(=O)C(C)(C)N2` [Compound 6-32], the inhibition at 10 µM was determined as 89%.

On to `COc1cc(N(C)C(C)=O)ccc1-c1ccc2c(c1COc1cc(F)ccc1C)N(C)C(=O)C(C)(C)N2` [Compound 16-3, 7-[4-(N-Acetyl-N-methylamino)-2-methoxyphenyl]-8-(5-fluoro-2-methylphenoxymethyl)-1,3,3-trimethyl-3,4-dihydro-1H-quinoxalin-2-one], for which the inhibition at 10 µM amounted to 86%.

As for `COc1cc(OC(=O)c2sccc2Cl)ccc1-c1ccc2c(c1COc1cc(F)ccc1C)N(C)C(=O)C(C)(C)N2` [Compound 15-17], the inhibition at 10 µM worked out at 95%.

Turning to `COc1ccccc1NCc1c(-c2ccc(O)cc2OC)ccc2c1N(C)C(=O)C(C)(C)N2` [Compound 21-3, 7-(4-Hydroxy-2-methoxyphenyl)-8-(2-methoxyphenylaminomethyl)-1,3,3-trimethyl-3,4-dihydro-1H-quinoxalin-2-one], the inhibition at 10 µM came out at 100%.
